The source of these data is US8901133B2, “Heterocyclic compounds and uses thereof” (Infinity Pharmaceuticals, Inc., priority 2010, dated 2014).

Data set [1] deals with T1, PI3Kα (Homo sapiens, UniProt P42336).
T1 construct: purchased Millipore Corporation 14-602-K
Description: PI3 Kinase HTRF assay, PI3Kα. The format is biochemical. The following applies: 10 μM PIP2, 10 μM ATP; read-out: PI3K α IC50. The essentials: (§1)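 Compounds were tested at 12 concentrations from 20 μM down to 0.1 nM against purified recombinant PI3K, which phosphorylated PIP2 (10 μM) in the presence of ATP (10 μM). Formed PIP3 was quantified by time-resolved FRET using GRP1 PH domain binding; emission ratios gave percent inhibition and IC50.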

Data set [2] deals with T2, PI3Kγ (Homo sapiens, UniProt P48736).
T2 construct: purchased Millipore Corporation 14-558-K
In words: PI3 Kinase HTRF assay, PI3Kγ. The format is biochemical. The note with it: 10 μM PIP2, 10 μM ATP; read-out: PI3K γ IC50. The essentials:
as §1
(TR-FRET usually uses a lanthanide donor and a delayed reading to cut background.)

Data set [3] deals with T3, PI3Kδ (Homo sapiens, UniProt O00329).
T3 construct: purchased Millipore Corporation 14-604-K
In words: PI3 Kinase HTRF assay, PI3Kδ. The format is biochemical. The following applies: 10 μM PIP2, 10 μM ATP; read-out: PI3K δ IC50. Put shortly:
as §1

The subject of data set [4] is Balb/c splenic B cells. In words: B cell activation and proliferation assay (Alamar Blue). The following applies: Mus musculus, read-out: B cell prolif. IC50. The format is cell-based. Put shortly: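 Purified cells (50,000/well, RPMI + 10% FBS) were preincubated 30 min at 37 °C with compound (0.2% DMSO final). Stimulation was with a cocktail containing either 10 ug/ml LPS or 5 ug/ml anti-mouse IgM F(ab′)2 plus 2 ng/ml mouse IL4, for 72 h. Viability by 5 h Alamar Blue reduction (560Ex/590Em); IC50 or EC50 fitted.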
A general note: Resazurin is reduced to fluorescent resorufin, in cell work by metabolically active cells.

In data set [5] the target is T4, PI3Kβ (Homo sapiens, UniProt P42338).
T4 construct: purchased Millipore Corporation 14-603-K
In words: PI3 Kinase HTRF assay, PI3Kβ. The format is biochemical. The following applies: 10 μM PIP2, 10 μM ATP; read-out: PI3K β IC50. Put shortly:
as §1

The conditions of data set [6]: PBS pH 7.4, 37° C., 24 hours, 5 μM; cited from earlier work.
For data set [7] the following is noted: control or reference compounds, 5 μM; cited from earlier work.

By IC50 is commonly meant the midpoint of a concentration-inhibition curve.

Some results are limits rather than exact numbers.

T4 sequence (P42338 whole entry): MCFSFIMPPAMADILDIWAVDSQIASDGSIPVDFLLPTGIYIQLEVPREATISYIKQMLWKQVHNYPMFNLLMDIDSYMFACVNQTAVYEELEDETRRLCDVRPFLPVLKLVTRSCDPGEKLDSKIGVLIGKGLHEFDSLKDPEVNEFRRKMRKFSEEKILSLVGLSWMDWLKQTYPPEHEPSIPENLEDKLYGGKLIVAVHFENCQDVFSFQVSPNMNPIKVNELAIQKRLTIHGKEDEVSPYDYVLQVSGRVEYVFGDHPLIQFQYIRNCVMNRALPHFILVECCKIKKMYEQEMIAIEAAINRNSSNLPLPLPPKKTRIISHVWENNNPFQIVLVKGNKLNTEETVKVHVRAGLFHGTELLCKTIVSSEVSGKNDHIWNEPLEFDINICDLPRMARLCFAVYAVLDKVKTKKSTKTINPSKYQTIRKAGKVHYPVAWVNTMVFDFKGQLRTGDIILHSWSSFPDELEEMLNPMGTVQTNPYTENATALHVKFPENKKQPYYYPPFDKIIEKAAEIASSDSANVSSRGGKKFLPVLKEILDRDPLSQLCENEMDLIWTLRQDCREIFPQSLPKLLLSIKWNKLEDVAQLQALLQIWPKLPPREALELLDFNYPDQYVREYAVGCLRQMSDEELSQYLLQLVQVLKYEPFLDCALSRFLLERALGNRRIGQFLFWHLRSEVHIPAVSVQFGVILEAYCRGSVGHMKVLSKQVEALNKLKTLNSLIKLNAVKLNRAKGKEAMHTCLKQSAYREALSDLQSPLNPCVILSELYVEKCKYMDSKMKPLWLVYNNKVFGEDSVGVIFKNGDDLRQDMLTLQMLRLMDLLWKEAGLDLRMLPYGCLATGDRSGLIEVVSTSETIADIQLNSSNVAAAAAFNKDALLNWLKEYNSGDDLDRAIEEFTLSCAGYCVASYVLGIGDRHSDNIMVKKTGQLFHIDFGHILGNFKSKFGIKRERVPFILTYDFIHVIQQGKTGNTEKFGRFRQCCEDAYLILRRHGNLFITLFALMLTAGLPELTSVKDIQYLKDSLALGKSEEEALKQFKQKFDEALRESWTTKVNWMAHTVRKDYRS
T4 sequence (P27986 whole entry partner): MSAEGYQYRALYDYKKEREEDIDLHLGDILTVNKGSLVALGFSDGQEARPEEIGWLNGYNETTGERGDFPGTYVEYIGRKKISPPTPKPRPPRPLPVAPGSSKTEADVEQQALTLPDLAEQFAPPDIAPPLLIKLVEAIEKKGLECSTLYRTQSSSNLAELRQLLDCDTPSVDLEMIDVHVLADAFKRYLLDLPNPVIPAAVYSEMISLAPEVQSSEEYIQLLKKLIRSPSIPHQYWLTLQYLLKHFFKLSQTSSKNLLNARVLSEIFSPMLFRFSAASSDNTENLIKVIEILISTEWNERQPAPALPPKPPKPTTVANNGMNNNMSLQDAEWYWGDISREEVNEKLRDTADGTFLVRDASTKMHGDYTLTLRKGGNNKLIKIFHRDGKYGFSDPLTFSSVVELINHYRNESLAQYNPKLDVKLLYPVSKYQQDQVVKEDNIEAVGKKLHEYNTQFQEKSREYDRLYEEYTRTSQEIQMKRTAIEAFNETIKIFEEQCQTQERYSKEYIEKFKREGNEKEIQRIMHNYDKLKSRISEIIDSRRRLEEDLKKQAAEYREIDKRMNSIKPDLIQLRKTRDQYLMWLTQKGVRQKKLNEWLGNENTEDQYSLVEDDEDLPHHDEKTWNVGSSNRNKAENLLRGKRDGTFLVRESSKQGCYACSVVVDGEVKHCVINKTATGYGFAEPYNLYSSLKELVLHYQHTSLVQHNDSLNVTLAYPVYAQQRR
T2 sequence (P48736 whole entry): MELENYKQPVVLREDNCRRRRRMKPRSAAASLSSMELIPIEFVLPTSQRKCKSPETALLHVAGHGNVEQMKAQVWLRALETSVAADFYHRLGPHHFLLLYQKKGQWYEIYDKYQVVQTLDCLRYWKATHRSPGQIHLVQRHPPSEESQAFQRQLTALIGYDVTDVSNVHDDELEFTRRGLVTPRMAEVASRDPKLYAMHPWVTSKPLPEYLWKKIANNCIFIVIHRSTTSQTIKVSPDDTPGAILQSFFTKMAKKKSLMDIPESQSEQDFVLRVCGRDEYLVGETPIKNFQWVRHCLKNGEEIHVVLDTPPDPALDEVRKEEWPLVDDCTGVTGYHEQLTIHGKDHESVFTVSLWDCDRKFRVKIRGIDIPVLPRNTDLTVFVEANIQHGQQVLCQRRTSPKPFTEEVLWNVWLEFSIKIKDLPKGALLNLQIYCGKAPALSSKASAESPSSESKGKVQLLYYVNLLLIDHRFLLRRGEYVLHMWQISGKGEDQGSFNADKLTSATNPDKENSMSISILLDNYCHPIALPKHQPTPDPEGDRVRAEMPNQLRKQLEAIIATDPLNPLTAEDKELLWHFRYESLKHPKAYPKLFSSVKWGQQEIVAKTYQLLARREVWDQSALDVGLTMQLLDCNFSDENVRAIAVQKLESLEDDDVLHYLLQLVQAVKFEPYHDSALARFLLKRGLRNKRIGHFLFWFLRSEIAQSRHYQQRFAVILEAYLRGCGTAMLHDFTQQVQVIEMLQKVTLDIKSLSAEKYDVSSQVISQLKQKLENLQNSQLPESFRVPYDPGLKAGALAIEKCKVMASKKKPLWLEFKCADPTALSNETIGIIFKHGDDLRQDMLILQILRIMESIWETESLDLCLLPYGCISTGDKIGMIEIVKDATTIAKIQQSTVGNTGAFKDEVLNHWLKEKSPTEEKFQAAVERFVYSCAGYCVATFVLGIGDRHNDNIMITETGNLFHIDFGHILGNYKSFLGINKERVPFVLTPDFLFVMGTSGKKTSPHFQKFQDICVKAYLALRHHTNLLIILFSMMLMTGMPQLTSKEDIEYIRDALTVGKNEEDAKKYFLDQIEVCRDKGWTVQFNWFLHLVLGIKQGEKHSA
T3 sequence (O00329 whole entry): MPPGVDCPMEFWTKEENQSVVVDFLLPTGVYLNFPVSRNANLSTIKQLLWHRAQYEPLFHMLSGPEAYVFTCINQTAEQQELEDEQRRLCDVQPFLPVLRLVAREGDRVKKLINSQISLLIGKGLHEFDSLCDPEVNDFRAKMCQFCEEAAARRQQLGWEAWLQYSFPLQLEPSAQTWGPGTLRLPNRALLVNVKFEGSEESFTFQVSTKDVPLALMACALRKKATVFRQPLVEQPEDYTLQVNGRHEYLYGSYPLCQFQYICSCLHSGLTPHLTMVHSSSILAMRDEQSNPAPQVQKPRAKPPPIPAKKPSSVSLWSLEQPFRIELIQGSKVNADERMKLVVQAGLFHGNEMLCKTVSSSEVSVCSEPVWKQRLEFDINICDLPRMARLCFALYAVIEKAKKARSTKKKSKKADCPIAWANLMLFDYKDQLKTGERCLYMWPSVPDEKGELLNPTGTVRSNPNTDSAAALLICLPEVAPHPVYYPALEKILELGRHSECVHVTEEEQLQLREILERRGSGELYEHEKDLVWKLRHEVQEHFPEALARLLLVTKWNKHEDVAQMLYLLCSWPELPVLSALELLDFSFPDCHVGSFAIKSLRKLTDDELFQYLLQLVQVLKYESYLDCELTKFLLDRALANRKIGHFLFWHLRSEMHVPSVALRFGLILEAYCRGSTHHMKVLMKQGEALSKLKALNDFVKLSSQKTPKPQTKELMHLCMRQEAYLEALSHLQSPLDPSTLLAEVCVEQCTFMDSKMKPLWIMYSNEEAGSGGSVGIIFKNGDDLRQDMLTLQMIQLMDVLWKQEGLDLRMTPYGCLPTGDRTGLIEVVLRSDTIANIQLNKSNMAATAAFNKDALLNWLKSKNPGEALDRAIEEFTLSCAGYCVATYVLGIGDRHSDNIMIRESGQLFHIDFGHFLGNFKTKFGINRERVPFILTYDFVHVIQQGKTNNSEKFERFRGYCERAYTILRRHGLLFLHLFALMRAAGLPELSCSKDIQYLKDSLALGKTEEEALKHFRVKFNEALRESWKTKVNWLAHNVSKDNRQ
T3 sequence (P27986 whole entry partner): as the sequence (P27986 whole entry partner) above
T1 sequence (P42336 whole entry): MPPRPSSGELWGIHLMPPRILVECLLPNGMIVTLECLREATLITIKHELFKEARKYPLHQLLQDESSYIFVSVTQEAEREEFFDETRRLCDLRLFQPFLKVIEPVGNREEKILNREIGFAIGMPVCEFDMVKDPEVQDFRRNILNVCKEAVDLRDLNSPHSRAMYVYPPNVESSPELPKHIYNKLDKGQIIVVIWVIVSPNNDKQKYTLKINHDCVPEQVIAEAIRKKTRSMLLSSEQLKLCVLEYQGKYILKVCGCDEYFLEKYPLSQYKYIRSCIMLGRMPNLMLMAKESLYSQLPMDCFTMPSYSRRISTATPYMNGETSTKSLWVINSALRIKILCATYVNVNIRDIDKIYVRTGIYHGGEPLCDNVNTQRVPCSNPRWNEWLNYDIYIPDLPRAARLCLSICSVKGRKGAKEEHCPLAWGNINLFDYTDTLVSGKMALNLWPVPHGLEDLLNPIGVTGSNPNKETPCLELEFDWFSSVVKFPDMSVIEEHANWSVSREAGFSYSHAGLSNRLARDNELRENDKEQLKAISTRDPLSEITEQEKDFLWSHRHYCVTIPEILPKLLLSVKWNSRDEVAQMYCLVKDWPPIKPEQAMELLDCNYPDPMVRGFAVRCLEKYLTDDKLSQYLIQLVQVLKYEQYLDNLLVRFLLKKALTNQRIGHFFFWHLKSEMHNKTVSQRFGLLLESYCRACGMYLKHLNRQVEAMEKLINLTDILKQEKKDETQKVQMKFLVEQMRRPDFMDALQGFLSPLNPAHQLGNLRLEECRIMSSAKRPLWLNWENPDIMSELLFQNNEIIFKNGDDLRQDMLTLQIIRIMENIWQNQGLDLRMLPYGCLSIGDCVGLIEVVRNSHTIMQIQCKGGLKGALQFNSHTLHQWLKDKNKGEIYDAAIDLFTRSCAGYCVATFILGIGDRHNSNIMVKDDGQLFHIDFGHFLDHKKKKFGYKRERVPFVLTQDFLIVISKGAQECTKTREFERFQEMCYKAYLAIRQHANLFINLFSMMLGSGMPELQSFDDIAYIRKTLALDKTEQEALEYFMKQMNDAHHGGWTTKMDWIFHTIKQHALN
T1 sequence (P27986 whole entry partner): as the sequence (P27986 whole entry partner) above

Regarding `Cc1cccc2cc([C@H](C)Nc3ncnc4cccnc34)nc(N3CCN(C)CC3)c12` [Compound 164], the concentration for half-maximal inhibition (IC50) in data set [1] is less than 10 µM; in data set [2], less than 10 µM; in data set [3], less than 0.1 µM; in data set [4] it was less than 0.1 µM; in data set [5] it was less than 10 µM.
Take `Cc1cccc2cc([C@H](C)Nc3ncnc4cccnc34)nc(CCN3CCOCC3)c12` [Compound 165]: the half-maximal inhibitory concentration (IC50) was less than 10 µM in data set [1]; less than 10 µM in data set [2]; less than 0.1 µM in data set [3]; less than 0.1 µM in data set [4]; more than 10 µM in data set [5].
On to `Cc1cccc2cc([C@H](C)Nc3ncnc4cccnc34)nc(C(=O)N3CCOCC3)c12` [Compound 166], for which the 50% inhibitory concentration (IC50) in data set [1] is less than 10 µM; in data set [2], less than 1 µM; in data set [3], less than 0.1 µM; in data set [4], less than 0.1 µM; in data set [5] it was less than 10 µM.
`Cc1cccc2cc([C@H](C)Nc3ncnc4cccnc34)nc(C(=O)N3C4CCC3COC4)c12` [Compound 167]: the IC50 in data set [1] was less than 10 µM; in data set [2], less than 1 µM; in data set [3], less than 0.1 µM; in data set [4], less than 0.1 µM; in data set [5] it was less than 10 µM.
As to `C[C@H](Nc1ncnc2scnc12)c1cc2cccc(Cl)c2c(OC2CCN(S(C)(=O)=O)CC2)n1` [Compound 172], the 50% inhibitory concentration (IC50) in data set [1] is more than 10 µM; in data set [2], less than 10 µM; in data set [3], less than 0.1 µM; in data set [4] it was less than 1 µM; in data set [5], less than 10 µM.
Take `C[C@H](Nc1ncnc2cccnc12)c1cc2cccc(Cl)c2c(OC2CCN(S(C)(=O)=O)CC2)n1` [Compound 173]: the IC50 was more than 10 µM in data set [1]; less than 10 µM in data set [2]; less than 0.1 µM in data set [3]; less than 1 µM in data set [4]; less than 10 µM in data set [5].
Turning to `C[C@H](Nc1ccnn2ccnc12)c1cc2cccc(Cl)c2c(OC2CCN(S(C)(=O)=O)CC2)n1` [Compound 176], the concentration for half-maximal inhibition (IC50) in data set [1] is more than 10 µM; in data set [2], less than 10 µM; in data set [3], less than 0.1 µM; in data set [4], less than 1 µM; in data set [5], less than 10 µM.
On to `C[C@H](Nc1ccnc2ccnn12)c1cc2cccc(Cl)c2c(C(=O)NC2CCOCC2)n1` [Compound 177], for which the IC50 is more than 10 µM in data set [1]; more than 10 µM in data set [2]; less than 0.1 µM in data set [3]; less than 0.1 µM in data set [4]; more than 10 µM in data set [5].
Take `C[C@H](Nc1ccnn2ccnc12)c1cc2cccc(Cl)c2c(C(=O)NC2CCOCC2)n1` [Compound 180]: the concentration for half-maximal inhibition (IC50) in data set [1] is more than 10 µM; in data set [2], more than 10 µM; in data set [3], less than 0.1 µM; in data set [4], less than 0.1 µM; in data set [5], more than 10 µM.
With `C[C@H](Nc1ccnn2ccnc12)c1cc2cccc(Cl)c2c(OCCN2CCCC2)n1` [Compound 182], the half-maximal inhibitory concentration (IC50) was more than 10 µM in data set [1]; more than 10 µM in data set [2]; less than 0.1 µM in data set [3]; less than 1 µM in data set [4]; more than 10 µM in data set [5].
As for `C[C@H](Nc1ncnc2[nH]cnc12)c1cc2cccc(-c3cnn(C)c3)c2c(C(=O)N2CCOCC2)n1` [Compound 185], the concentration for half-maximal inhibition (IC50) in data set [1] was more than 10 µM; in data set [2], less than 10 µM; in data set [3], less than 0.1 µM; in data set [4], less than 0.1 µM; in data set [5], more than 10 µM.
For the compound `C[C@H](Nc1ccnn2ccnc12)c1cc2cccc(Cl)c2c(C(=O)N2CCOCC2)n1` [Compound 188], the half-inhibitory concentration (IC50) in data set [1] is less than 10 µM; in data set [2], less than 1 µM; in data set [3] it was less than 0.1 µM; in data set [4] it was less than 0.1 µM; in data set [5], less than 1 µM.
As to `C[C@H](Nc1ccnn2ccnc12)c1cc2cccc(Cl)c2c(C(=O)N2C3CCC2COC3)n1` [Compound 189], the IC50 in data set [1] is more than 10 µM; in data set [2], less than 10 µM; in data set [3] it was less than 0.1 µM; in data set [4], less than 0.1 µM; in data set [5], less than 10 µM.
For `C[C@H](Nc1ncnc2[nH]cnc12)c1cc2cccc(-c3cccnc3)c2c(Cl)n1` [Compound 192], the half-maximal inhibitory concentration (IC50) in data set [1] is more than 10 µM; in data set [2] it was less than 1 µM; in data set [3] it was less than 0.1 µM; in data set [4], less than 1 µM; in data set [5] it was more than 10 µM.
In the case of `C[C@H](Nc1ncnc2[nH]cc(C(N)=O)c12)c1cc2cccc(Cl)c2c(C(=O)N2CCOCC2)n1` [Compound 204], the half-maximal inhibitory concentration (IC50) in data set [1] is less than 10 µM; in data set [2], less than 0.1 µM; in data set [3], less than 0.1 µM; in data set [4], less than 0.1 µM; in data set [5], less than 10 µM.
Consider `C[C@H](Nc1ncnc2[nH]cc(C(N)=O)c12)c1cc2cccc(Cl)c2c(C(=O)N2C3CCC2COC3)n1` [Compound 207], for which the IC50 in data set [1] is less than 10 µM; in data set [2] it was less than 0.1 µM; in data set [3] it was less than 0.1 µM; in data set [4], less than 0.1 µM; in data set [5], less than 10 µM.
Consider `C[C@H](Nc1ncnc2[nH]cc(F)c12)c1cc2cccc(Cl)c2c(C(=O)N2C3CCC2COC3)n1` [Compound 208], for which the concentration for half-maximal inhibition (IC50) in data set [1] was less than 10 µM; in data set [2] it was less than 1 µM; in data set [3], less than 0.1 µM; in data set [4] it was less than 0.1 µM; in data set [5], less than 10 µM.
`CCN1CCC(NC(=O)c2nc([C@H](C)Nc3ncnc4scnc34)cc3cccc(Cl)c23)CC1` [Compound 212]: the IC50 in data set [1] is less than 10 µM; in data set [2], less than 10 µM; in data set [3], less than 0.1 µM; in data set [4] it was less than 0.1 µM; in data set [5], less than 10 µM.
`C[C@H](Nc1ncnc2scnc12)c1cc2cccc(Cl)c2c(C(=O)NC2CCCC2)n1` [Compound 213]: the 50% inhibitory concentration (IC50) was less than 10 µM in data set [1]; less than 10 µM in data set [2]; less than 0.1 µM in data set [3]; less than 0.1 µM in data set [4]; more than 10 µM in data set [5].
As to `C[C@H](Nc1ncnc2scnc12)c1cc2cccc(Cl)c2c(C(=O)NC2CCC(O)CC2)n1` (some centres unmarked) [Compound 214], the IC50 was less than 10 µM in data set [1]; less than 10 µM in data set [2]; less than 0.1 µM in data set [3]; less than 0.1 µM in data set [4]; more than 10 µM in data set [5].
With `C[C@H](Nc1ncnc2scnc12)c1cc2cccc(Cl)c2c(C(=O)N2CCS(=O)(=O)CC2)n1` [Compound 220], the half-maximal inhibitory concentration (IC50) in data set [1] was more than 10 µM; in data set [2] it was less than 1 µM; in data set [3] it was less than 0.1 µM; in data set [4] it was less than 0.1 µM; in data set [5] it was less than 10 µM.
`C[C@H](Nc1ncnc2scnc12)c1cc2cccc(Cl)c2c(C(=O)N2CCC(F)(F)CC2)n1` [Compound 228]: the IC50 in data set [1] is less than 10 µM; in data set [2] it was less than 10 µM; in data set [3], less than 0.1 µM; in data set [4], less than 0.1 µM; in data set [5] it was less than 10 µM.
In the case of `C[C@H](Nc1ncnc2scnc12)c1cc2cccc(Cl)c2c(C(=O)N2CCOC[C@@H]2C)n1` [Compound 232], the IC50 in data set [1] is less than 10 µM; in data set [2] it was less than 10 µM; in data set [3], less than 0.1 µM; in data set [4], less than 0.1 µM; in data set [5] it was less than 10 µM.
For the compound `C[C@H](Nc1ncnc2scnc12)c1cc2cccc(Cl)c2c(C(=O)N2CCC(O)CC2)n1` [Compound 234], the half-maximal inhibitory concentration (IC50) in data set [1] was less than 10 µM; in data set [2], less than 10 µM; in data set [3], less than 0.1 µM; in data set [4], less than 0.1 µM; in data set [5], less than 10 µM.
`C[C@H](Nc1nc(N)nc2cccnc12)c1cc2cccc(Cl)c2c(C(=O)N2CCOCC2)n1` [Compound 238]: the half-maximal inhibitory concentration (IC50) in data set [1] was more than 10 µM; in data set [2] it was less than 0.1 µM; in data set [3] it was less than 0.1 µM; in data set [4], less than 0.1 µM; in data set [5], less than 10 µM.
Take `C[C@H](Nc1ncnc2[nH]cnc12)c1cc2cccc(Cl)c2c(-c2cc(CO)on2)n1` [Compound 242]: the IC50 in data set [1] is less than 10 µM; in data set [2], less than 1 µM; in data set [3], less than 0.1 µM; in data set [4], less than 0.1 µM; in data set [5] it was less than 1 µM.
Take `C[C@H](Nc1ncnc2cccnc12)c1cc2ccccc2c(C(=O)N2CCOCC2)n1` [Compound 247]: the half-inhibitory concentration (IC50) is more than 10 µM in data set [1]; more than 10 µM in data set [2]; less than 0.1 µM in data set [3]; less than 1 µM in data set [4]; more than 10 µM in data set [5].
Consider `C[C@H](Nc1ncnc2cccnc12)c1cc2cccc(Cl)c2c(C(=O)N2CCOC[C@@H]2C)n1` [Compound 248], for which the IC50 in data set [1] is less than 10 µM; in data set [2], less than 1 µM; in data set [3], less than 0.1 µM; in data set [4], less than 0.1 µM; in data set [5], less than 10 µM.
Consider `O=C(O)CCCc1ccc(N(CCCl)CCCl)cc1` [chlorambucil], for which, in data set [6], the chemical stability result is recorded as “largely hydrolyzed over the course of 24 hours”.
Consider `CC(C)[N+](C)(CCOC(=O)C1c2ccccc2Oc2ccccc21)C(C)C` [propantheline], for which, in data set [7], the plasma stability entry is given as “intermediate plasma stability”.
As to `CCCOc1cc(N)ccc1C(=O)OCCN(CC)CC` [propoxycaine], the plasma stability result in data set [7] is recorded as “low plasma stability”.
